Measured values reported in ChEMBL document CHEMBL4316596, “Antimicrobial Peptides with High Proteolytic Resistance for Combating Gram-Negative Bacteria” (J Med Chem, 2019).
≈ marks a conversion by molar mass, not a printed value.

Assays:
[1] = test system: Pseudomonas aeruginosa; assay: Antimicrobial activity against Pseudomonas aeruginosa CICC 21630 clinical isolates after 24 hrs by NCCLS-protocol based assay; format: functional; settings: CICC 21630, 24 h
[2] = test system: Pseudomonas aeruginosa; assay: Bactericidal activity against Pseudomonas aeruginosa ATCC 27853 incubated for 4 hrs followed by culture spread on agar plates and cultured overnight; format: functional; settings: ATCC 27853, 4 h, read-out: MBC>99.9
[3] = test system: Klebsiella pneumoniae; assay: Bactericidal activity against Klebsiella pneumoniae incubated for 4 hrs followed by culture spread on agar plates and cultured overnight; format: functional; settings: read-out: MBC>99.9
[4] = test system: Escherichia coli; assay: Bactericidal activity against Escherichia coli K88 incubated for 4 hrs followed by culture spread on agar plates and cultured overnight; format: functional; settings: K88, 4 h, read-out: MBC>99.9
[5] = test system: Pseudomonas aeruginosa; assay: Antimicrobial activity against Pseudomonas aeruginosa 26305 clinical isolates after 24 hrs by NCCLS-protocol based assay; format: functional; settings: Pseudomonas aeruginosa, 26305, 24 h
[6] = test system: Salmonella typhimurium; assay: Antimicrobial activity against Salmonella typhimurium C7731 after 24 hrs by NCCLS-protocol based assay; format: functional, Salmonella enterica subsp. enterica serovar Typhimurium; settings: Salmonella enterica, C7731, 24 h
[7] = test system: Escherichia coli; assay: Bactericidal activity against Escherichia coli K99 incubated for 4 hrs followed by culture spread on agar plates and cultured overnight; format: functional; settings: K99, 4 h, read-out: MBC>99.9
[8] = test system: Escherichia coli; assay: Antimicrobial activity against Escherichia coli K88 after 24 hrs by NCCLS-protocol based assay; format: functional; settings: K88, 24 h
[9] = test system: Escherichia coli; assay: Antimicrobial activity against Escherichia coli ATCC 25922 after 24 hrs by NCCLS-protocol based assay; format: functional; settings: ATCC 25922, 24 h
[10] = test system: Pseudomonas aeruginosa; assay: Bactericidal activity against Pseudomonas aeruginosa 26305 clinical isolates incubated for 4 hrs followed by culture spread on agar plates and cultured overnight; format: functional; settings: Pseudomonas aeruginosa, 26305, 4 h; read-out: MBC>99.9
[11] = test system: Escherichia coli; assay: Bactericidal activity against Escherichia coli ATCC 25922 incubated for 4 hrs followed by culture spread on agar plates and cultured overnight; format: functional; settings: ATCC 25922, 4 h, read-out: MBC>99.9
[12] = test system: Salmonella typhimurium; assay: Antimicrobial activity against Salmonella typhimurium ATCC 14028 after 24 hrs by NCCLS-protocol based assay; format: functional, Salmonella enterica subsp. enterica serovar Typhimurium; settings: Salmonella enterica, ATCC 14028, 24 h
[13] = test system: Pseudomonas aeruginosa; assay: Antimicrobial activity against Pseudomonas aeruginosa ATCC 27853 after 24 hrs by NCCLS-protocol based assay; format: functional; settings: ATCC 27853, 24 h
[14] = test system: Klebsiella pneumoniae; assay: Antimicrobial activity against Klebsiella pneumoniae after 24 hrs by NCCLS-protocol based assay; format: functional
[15] = Bactericidal activity against Salmonella pullorum C7913 incubated for 4 hrs followed by culture spread on agar plates and cultured overnight; format: functional, Salmonella enterica subsp. enterica serovar Pullorum; settings: Salmonella enterica, C7913, 4 h; read-out: MBC>99.9
[16] = test system: Salmonella typhimurium; assay: Bactericidal activity against Salmonella typhimurium ATCC 14028 incubated for 4 hrs followed by culture spread on agar plates and cultured overnight; format: functional, Salmonella enterica subsp. enterica serovar Typhimurium; settings: Salmonella enterica, ATCC 14028, 4 h; read-out: MBC>99.9
[17] = test system: Pseudomonas aeruginosa; assay: Bactericidal activity against Pseudomonas aeruginosa CICC 21625 clinical isolates incubated for 4 hrs followed by culture spread on agar plates and cultured overnight; format: functional; settings: CICC 21625, 4 h, read-out: MBC>99.9
[18] = test system: Pseudomonas aeruginosa; assay: Antimicrobial activity against Pseudomonas aeruginosa PAO1 after 24 hrs by NCCLS-protocol based assay; format: functional; settings: PAO1, 24 h
[19] = test system: Escherichia coli; assay: Antimicrobial activity against Escherichia coli K99 after 24 hrs by NCCLS-protocol based assay; format: functional; settings: K99, 24 h
[20] = test system: Escherichia coli; assay: Antimicrobial activity against Escherichia coli 078 after 24 hrs by NCCLS-protocol based assay; format: functional; settings: Escherichia coli, 078, 24 h
[21] = test system: Escherichia coli; assay: Bactericidal activity against Escherichia coli UB1005 incubated for 4 hrs followed by culture spread on agar plates and cultured overnight; format: functional; settings: UB1005, 4 h, read-out: MBC>99.9
[22] = test system: Escherichia coli; assay: Bactericidal activity against Escherichia coli 078 incubated for 4 hrs followed by culture spread on agar plates and cultured overnight; format: functional; settings: Escherichia coli, 078, 4 h; read-out: MBC>99.9
[23] = test system: Acinetobacter baumannii; assay: Bactericidal activity against Acinetobacter baumannii incubated for 4 hrs followed by culture spread on agar plates and cultured overnight; format: functional; settings: read-out: MBC>99.9
[24] = test system: Escherichia coli; assay: Antimicrobial activity against Escherichia coli UB1005 after 24 hrs by NCCLS-protocol based assay; format: functional; settings: UB1005, 24 h
[25] = test system: Pseudomonas aeruginosa; assay: Antimicrobial activity against Pseudomonas aeruginosa CICC 21625 clinical isolates after 24 hrs by NCCLS-protocol based assay; format: functional; settings: CICC 21625, 24 h
[26] = test system: Pseudomonas aeruginosa; assay: Bactericidal activity against Pseudomonas aeruginosa PAO1 incubated for 4 hrs followed by culture spread on agar plates and cultured overnight; format: functional; settings: PAO1, 4 h, read-out: MBC>99.9
[27] = test system: Acinetobacter baumannii; assay: Antimicrobial activity against Acinetobacter baumannii after 24 hrs by NCCLS-protocol based assay; format: functional
[28] = Antimicrobial activity against Salmonella pullorum C7913 after 24 hrs by NCCLS-protocol based assay; format: functional, Salmonella enterica subsp. enterica serovar Pullorum; settings: Salmonella enterica, C7913, 24 h
[29] = test system: Pseudomonas aeruginosa; assay: Bactericidal activity against Pseudomonas aeruginosa CICC 21630 clinical isolates incubated for 4 hrs followed by culture spread on agar plates and cultured overnight; format: functional; settings: CICC 21630, 4 h, read-out: MBC>99.9
[30] = test system: Pseudomonas aeruginosa; assay: Antimicrobial activity against Pseudomonas aeruginosa 25349 clinical isolates after 24 hrs by NCCLS-protocol based assay; format: functional; settings: Pseudomonas aeruginosa, 25349, 24 h
[31] = test system: Salmonella typhimurium; assay: Bactericidal activity against Salmonella typhimurium C7731 incubated for 4 hrs followed by culture spread on agar plates and cultured overnight; format: functional, Salmonella enterica subsp. enterica serovar Typhimurium; settings: Salmonella enterica, C7731, 4 h; read-out: MBC>99.9
[32] = test system: Pseudomonas aeruginosa; assay: Bactericidal activity against Pseudomonas aeruginosa 25349 clinical isolates incubated for 4 hrs followed by culture spread on agar plates and cultured overnight; format: functional; settings: Pseudomonas aeruginosa, 25349, 4 h; read-out: MBC>99.9

Molecule | MIC95 [1] | MBC [2] | MBC [3] | MBC [4] | MIC95 [5] | MIC95 [6] | MBC [7] | MIC95 [8] | MIC95 [9] | MBC [10] | MBC [11] | MIC95 [12] | MIC95 [13] | MIC95 [14] | MBC [15] | MBC [16] | MBC [17] | MIC95 [18] | MIC95 [19] | MIC95 [20] | also measured
H-IRPIIRPIIRPIIRPIIRPI-NH2 | > 64 µM | 64 µM | 16 µM | 1 µM | > 64 µM | 16 µM | 4 µM | 1 µM | 8 µM | > 64 µM | 8 µM | 8 µM | 32 µM | 8 µM | 8 µM | 8 µM | > 64 µM | 64 µM | 4 µM | 8 µM | MBC [21]: 8 µM; MBC [22]: 16 µM; MBC [23]: 4 µM; MIC95 [24]: 4 µM; MIC95 [25]: > 64 µM; MBC [26]: 64 µM; MIC95 [27]: 4 µM; MIC95 [28]: 8 µM; MBC [29]: > 64 µM; MIC95 [30]: > 64 µM; MBC [31]: 16 µM; MBC [32]: > 64 µM
NCC[C@H](O)C(=O)N[C@@H]1C[C@H](N)[C@@H](O[C@H]2O[C@H](CN)[C@@H](O)[C@H](O)[C@H]2O)[C@H](O)[C@H]1O[C@H]1O[C@H](CO)[C@@H](O)[C@H](N)[C@H]1O [AMIKACIN] | 0.125 µM (≈ 0.0732 µg/mL) | 0.25 µM (≈ 0.146 µg/mL) | 0.125 µM (≈ 0.0732 µg/mL) | 0.0625 µM (≈ 0.0366 µg/mL) | > 64 µM | 0.0625 µM (≈ 0.0366 µg/mL) | 0.125 µM (≈ 0.0732 µg/mL) | 0.0625 µM (≈ 0.0366 µg/mL) | 0.0625 µM (≈ 0.0366 µg/mL) | > 64 µM | 0.125 µM (≈ 0.0732 µg/mL) | 0.125 µM (≈ 0.0732 µg/mL) | 0.125 µM (≈ 0.0732 µg/mL) | 0.0625 µM (≈ 0.0366 µg/mL) | 0.0625 µM (≈ 0.0366 µg/mL) | 0.125 µM (≈ 0.0732 µg/mL) | 0.25 µM (≈ 0.146 µg/mL) | 0.0625 µM (≈ 0.0366 µg/mL) | 0.0625 µM (≈ 0.0366 µg/mL) | 0.0625 µM (≈ 0.0366 µg/mL) | MBC [21]: 0.125 µM (≈ 0.0732 µg/mL); MBC [22]: 0.0625 µM (≈ 0.0366 µg/mL); MBC [23]: 0.125 µM (≈ 0.0732 µg/mL); MIC95 [24]: 0.0625 µM (≈ 0.0366 µg/mL); MIC95 [25]: 0.125 µM (≈ 0.0732 µg/mL); MBC [26]: 0.125 µM (≈ 0.0732 µg/mL); MIC95 [27]: 0.0625 µM (≈ 0.0366 µg/mL); MIC95 [28]: 0.0625 µM (≈ 0.0366 µg/mL); MBC [29]: 0.125 µM (≈ 0.0732 µg/mL); MIC95 [30]: 0.25 µM (≈ 0.146 µg/mL); MBC [31]: 0.125 µM (≈ 0.0732 µg/mL); MBC [32]: 0.25 µM (≈ 0.146 µg/mL)
H-LKPLLKPLLKPLLKPLLKPL-NH2 | 32 µM | 16 µM | 64 µM | 2 µM | 32 µM | 16 µM | 4 µM | 2 µM | 2 µM | 64 µM | 4 µM | 8 µM | 16 µM | 32 µM | 8 µM | 16 µM | > 64 µM | > 64 µM | 2 µM | 4 µM | MBC [21]: 8 µM; MBC [22]: 8 µM; MBC [23]: 4 µM; MIC95 [24]: 2 µM; MIC95 [25]: > 64 µM; MBC [26]: > 64 µM; MIC95 [27]: 4 µM; MIC95 [28]: 4 µM; MBC [29]: 64 µM; MIC95 [30]: 32 µM; MBC [31]: 16 µM; MBC [32]: 64 µM
